≈ marks a conversion by molar mass, not a printed value.

For orientation: MIC means the lowest concentration that inhibits growth of the organism.

In one experiment the test system is NIH3T3. Description: Minimum inhibitory concentration for the inhibition of transformation in ras- transformed cells(ras/ NIH3T3). It counts as functional. The settings on record: Mus musculus.
In turn, `O=C(CCCC/C=C/c1ccccc1NS(=O)(=O)c1ccccc1)NO` returned an MIC of 4.3 µM (≈ 1.61 µg/mL).

In turn, `O=C(CCCC/C=C\c1ccccc1NS(=O)(=O)c1ccccc1)NO` displayed an MIC of 17 µM (≈ 6.37 µg/mL).

Compound `Cc1ccc(S(=O)(=O)Nc2cccc(C#C/C=C/C(=O)NO)c2)cc1` displayed an MIC of 0.16 µM (≈ 0.057 µg/mL).

On to `COc1ccc(S(=O)(=O)Nc2cccc(C#C/C=C/C(=O)NO)c2)cc1`, for which the MIC was 0.08 µM (≈ 0.0298 µg/mL).

`O=C(/C=C/C#Cc1cccc(NS(=O)(=O)c2ccc(F)cc2)c1)NO`: the MIC turned out to be 0.08 µM (≈ 0.0288 µg/mL).

The compound `O=C(/C=C/C=C/c1cccc(NS(=O)(=O)c2ccccc2)c1)NO` yielded an MIC of 0.3 µM (≈ 0.103 µg/mL).

In the case of `CN(c1cccc(/C=C/C=C/C(=O)NO)c1)S(=O)(=O)c1ccccc1`, inhibition of growth (MIC) required 0.6 µM (≈ 0.215 µg/mL).

Compound `O=C(/C=C/C#Cc1cccc(NS(=O)(=O)c2ccc(Br)cc2)c1)NO` came in with an MIC of 0.16 µM (≈ 0.0674 µg/mL).

`O=C(/C=C/C#Cc1cccc(NS(=O)(=O)c2ccc([N+](=O)[O-])cc2)c1)NO` showed an MIC of 0.64 µM (≈ 0.248 µg/mL).

Consider `O=C(/C=C/C#Cc1cccc(NS(=O)(=O)c2ccc3ccccc3c2)c1)NO`, for which it took 0.08 µM (≈ 0.0314 µg/mL) to inhibit growth (MIC).

Take `O=C(/C=C/C=C/c1cc2ccccc2n1S(=O)(=O)c1ccccc1)NO`: the MIC is 0.4 µM (≈ 0.147 µg/mL).

`O=C(/C=C/C=C/c1ccccc1NS(=O)(=O)c1ccccc1)NO` came in with an MIC of 1.6 µM (≈ 0.551 µg/mL).

`O=C(/C=C/C=C/c1cc2ccccc2cc1NS(=O)(=O)c1ccccc1)NO` returned an MIC of 0.32 µM (≈ 0.126 µg/mL).

As for `CN(c1ccccc1/C=C/C=C/C(=O)NO)S(=O)(=O)c1ccccc1`, the MIC is 0.8 µM (≈ 0.287 µg/mL).

`O=C(/C=C/C=C/c1ccc(NS(=O)(=O)c2ccccc2)cc1)NO` returned an MIC of 1.6 µM (≈ 0.551 µg/mL).

The next experiment concerns NIH3T3. The experiment is described as follows: Minimum inhibitory concentration for the inhibition of transformation in ras- transformed cells(ras/ NIH3T3); Not effective at the highest concentration tested (100 uM). It counts as functional, cell-based. The settings on record: Mus musculus.
In the case of `O=C(/C=C/C#CC#Cc1cccc(NS(=O)(=O)c2ccccc2)c1)NO`, the MIC result was “Not effective at the highest concentration tested (100 uM)”.

The values are drawn from ChEMBL document CHEMBL1129242, “(2E)-5-[3-[(phenylsulfonyl)amino]phenyl]-pent-2-en-4-ynohydroxamic acid and its derivatives as novel and potent inhibitors of ras transformation” (1996).
